The text below walks through data of patent US10294234B2, “HIV inhibitor compounds” (priority 2017, dated 2019).

Data set [1] has as its system HIV-1 (IIIB) in MT-4 cells. In words: MT-4 HIV assay. Format: cell-based. To be noted: Human immunodeficiency virus 1, MT4, 120 h. The essentials:
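MT-4 cells infected with HIV-1 IIIB (1:250 stock dilution) were incubated with 1:3 serially diluted compounds in RPMI with 10% FBS for 5 days at 37 °C. Cell Titer Glo luminescence was the readout. Plates included mock-infected wells, no-drug wells and 5 uM AZT controls.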

The method of data set [2] in brief:
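Test compounds at 1 uM incubated in duplicate with dog, rat and human liver microsomes (0.5 mg/mL protein) plus NADPH-regenerating system; sampled at 2, 12, 25, 45 and 65 minutes. Parent remaining monitored by LC/MS/MS; Clint calculated from in vitro t1/2.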

[3] abbreviates: HIV-1 (IIIB), MT-4 cells, 5 days, Cell Titer Glo, read-out: EC50.
Where [4] appears, read: human liver microsomes 0.5 mg/mL, 1 uM compound, NADPH.
The mark [5] stands for this setting: rat liver microsomes 0.5 mg/mL, 1 uM compound, NADPH.

Read-outs that look alike come from different tables or passages of the source.

As to `COC(=O)N[C@H](C(=O)N[C@@H](Cc1ccc(C#Cc2ccc(N3CC4CCC(C3)N4C3COC3)nc2)cc1)[C@@H](O)CN(Cc1c(F)cc(C2CCOCC2)cc1F)NC(=O)[C@@H](NC(=O)OC)C(C)(C)C(F)(F)F)C(C)(C)C(F)(F)F` [Example 82, Methyl ((5S,8S,9S,14S)-11-(2,6-difluoro-4-(tetrahydro-2H-pyran-4-yl)benzyl)-16,16,16-trifluoro-9-hydroxy-15,15-dimethyl-8-(4-((6-(8-(oxetan-3-yl)-3,8-diazabicyclo[3.2.1]octan-3-yl)pyridin-3-yl)ethynyl)benzyl)-3,6,13-trioxo-5-(1,1,1-trifluoro-2-methylpropan-2-yl)-2-oxa-4,7,11,12-tetraazahexadecan-14-yl)carbamate], the EC50 (as a rule, the concentration giving half of the maximal effect) in data set [1] (setting [3]) is 4.4 nM. In addition, the “Human Pred Cl.” value in data set [2] (human, microsomes) amounted to 0.82 L/H/kg. Besides, in data set [2] (rat, microsomes), the “Rat. Pred. Cl.” value was found to be 0.44 L/H/kg.
Regarding `COC(=O)N[C@H](C(=O)NN(Cc1ccc(-c2ccn(C(F)F)n2)cc1)C[C@H](O)[C@H](Cc1ccc(C#Cc2ccc(N3CC4CCC(C3)N4C3COC3)nc2)cc1)NC(=O)[C@@H](NC(=O)OC)C(C)(C)C(F)(F)F)C(C)(C)C` [Example 85, Methyl ((5S,8S,9S,14S)-11-(4-(1-(difluoromethyl)-1H-pyrazol-3-yl)benzyl)-9-hydroxy-15,15-dimethyl-8-(4-((6-(8-(oxetan-3-yl)-3,8-diazabicyclo[3.2.1]octan-3-yl)pyridin-3-yl)ethynyl)benzyl)-3,6,13-trioxo-5-(1,1,1-trifluoro-2-methylpropan-2-yl)-2-oxa-4,7,11,12-tetraazahexadecan-14-yl)carbamate], the concentration for a half-maximal effect (EC50) in data set [1] (setting [3]) came out at 3.78 nM. In data set [2] (human, microsomes), the “Human Pred Cl.” value came out at 0.13 L/H/kg. Moreover, the “Rat. Pred. Cl.” value in data set [2] (rat, microsomes) is listed as 0.19 L/H/kg.
For the molecule `COC(=O)N[C@H](C(=O)NN(Cc1c(F)cc(-c2cnn(C(F)F)c2)cc1F)C[C@H](O)[C@H](Cc1ccc(C#Cc2ccc(N3CC4CCC(C3)N4C3COC3)nc2)cc1)NC(=O)[C@@H](NC(=O)OC)C(C)(C)C(F)(F)F)C(C)(C)C` [Example 86, Methyl ((5S,8S,9S,14S)-11-(4-(1-(difluoromethyl)-1H-pyrazol-4-yl)-2,6-difluorobenzyl)-9-hydroxy-15,15-dimethyl-8-(4-((6-(8-(oxetan-3-yl)-3,8-diazabicyclo[3.2.1]octan-3-yl)pyridin-3-yl)ethynyl)benzyl)-3,6,13-trioxo-5-(1,1,1-trifluoro-2-methylpropan-2-yl)-2-oxa-4,7,11,12-tetraazahexadecan-14-yl)carbamate], in data set [1] (setting [3]), the EC50 was 2.61 nM. In addition, in data set [2] (human, microsomes), the “Human Pred Cl.” value is listed as less than 0.11 L/H/kg. In addition, the “Rat. Pred. Cl.” value in data set [2] (rat, microsomes) is less than 0.18 L/H/kg.
Turning to `COC(=O)N[C@H](C(=O)N[C@@H](Cc1ccc(C#Cc2cnc(N3CCN(C4COC4)CC3)nc2)cc1)[C@@H](O)CN(Cc1c(F)cc(-c2ccn(C(F)F)n2)cc1F)NC(=O)[C@@H](NC(=O)OC)C(C)(C)C(F)(F)F)C(C)(C)C(F)(F)F` [Example 87, methyl ((5S,8S,9S,14S)-11-(4-(1-(difluoromethyl)-1H-pyrazol-3-yl)-2,6-difluorobenzyl)-16,16,16-trifluoro-9-hydroxy-15,15-dimethyl-8-(4-((2-(4-(oxetan-3-yl)piperazin-1-yl)pyrimidin-5-yl)ethynyl)benzyl)-3,6,13-trioxo-5-(1,1,1-trifluoro-2-methylpropan-2-yl)-2-oxa-4,7,11,12-tetraazahexadecan-14-yl)carbamate], the EC50 in data set [1] turned out to be 4.26 nM. The “Human Pred Cl.” value in data set [2] (setting [4]) is reported as 0.13 L/H/kg. In data set [2] (setting [5]), the “Rat. Pred. Cl.” value is on record as 0.23 L/H/kg.
Molecule `COC(=O)N[C@H](C(=O)NN(Cc1c(F)cc(-c2ccn(C3CC3)n2)cc1F)C[C@H](O)[C@H](Cc1ccc(C#Cc2ccc(N3C[C@H]4C[C@@H]3CN4C3COC3)nc2)cc1)NC(=O)[C@@H](NC(=O)OC)C(C)(C)C(F)(F)F)C(C)(C)C` [Example 90, Methyl ((5S,8S,9S,14S)-11-(4-(1-cyclopropyl-1H-pyrazol-3-yl)-2,6-difluorobenzyl)-9-hydroxy-15,15-dimethyl-8-(4-((6-((1R,4R)-5-(oxetan-3-yl)-2,5-diazabicyclo[2.2.1]heptan-2-yl)pyridin-3-yl)ethynyl)benzyl)-3,6,13-trioxo-5-(1,1,1-trifluoro-2-methylpropan-2-yl)-2-oxa-4,7,11,12-tetraazahexadecan-14-yl)carbamate] displayed a concentration giving a half-maximal response (EC50) in data set [1] of 3.45 nM. Moreover, the “Human Pred Cl.” value in data set [2] (setting [4]) was determined as 0.14 L/H/kg. Also, the “Rat. Pred. Cl.” value in data set [2] (setting [5]) is 0.67 L/H/kg.
Regarding `COC(=O)N[C@H](C(=O)N[C@@H](Cc1ccc(C#Cc2ccc(N3C[C@H]4C[C@@H]3CN4C3COC3)nc2)cc1)[C@@H](O)CN(Cc1c(F)cc(-c2ncccn2)cc1F)NC(=O)[C@@H](NC(=O)OC)C(C)(C)C(F)(F)F)C(C)(C)C(F)(F)F` [Example 93, Methyl ((5S,8S,9S,14S)-11-(2,6-difluoro-4-(pyrimidin-2-yl)benzyl)-16,16,16-trifluoro-9-hydroxy-15,15-dimethyl-8-(4-((6-((1R,4R)-5-(oxetan-3-yl)-2,5-diazabicyclo[2.2.1]heptan-2-yl)pyridin-3-yl)ethynyl)benzyl)-3,6,13-trioxo-5-(1,1,1-trifluoro-2-methylpropan-2-yl)-2-oxa-4,7,11,12-tetraazahexadecan-14-yl)carbamate], the EC50 in data set [1] (setting [3]) came to 2.49 nM. The “Human Pred Cl.” value in data set [2] (setting [4]) worked out at 0.19 L/H/kg. Also, the “Rat. Pred. Cl.” value in data set [2] (setting [5]) is listed as 1.13 L/H/kg.
In data set [1], `COC(=O)N[C@H](C(=O)NN(Cc1c(F)cc(-c2ncccn2)cc1F)C[C@H](O)[C@H](Cc1ccc(C#Cc2ccc(N3C[C@H]4C[C@@H]3CN4C3COC3)nc2)cc1)NC(=O)[C@@H](NC(=O)OC)C(C)(C)C(F)(F)F)C(C)(C)C` [Example 95] returned a 50% effective concentration (EC50) of 2.44 nM. Moreover, the “Human Pred Cl.” value in data set [2] (setting [4]) is 0.38 L/H/kg. Further, in data set [2] (setting [5]), the “Rat. Pred. Cl.” value worked out at 1.39 L/H/kg.
For the molecule `COC(=O)N[C@H](C(=O)N[C@@H](Cc1ccc(C#Cc2ccc(N3CCN(C4COC4)CC3)nc2)cc1)[C@@H](O)CN(Cc1c(F)cc(-c2ccc(F)cn2)cc1F)NC(=O)[C@@H](NC(=O)OC)C(C)(C)C(F)(F)F)C(C)(C)C(F)(F)F` [Example 97, Methyl ((5S,8S,9S,14S)-11-(2,6-difluoro-4-(5-fluoropyridin-2-yl)benzyl)-16,16,16-trifluoro-9-hydroxy-15,15-dimethyl-8-(4-((6-(4-(oxetan-3-yl)piperazin-1-yl)pyridin-3-yl)ethynyl)benzyl)-3,6,13-trioxo-5-(1,1,1-trifluoro-2-methylpropan-2-yl)-2-oxa-4,7,11,12-tetraazahexadecan-14-yl)carbamate], the EC50 in data set [1] came out at 4.54 nM. In addition, in data set [2] (setting [4]), the “Human Pred Cl.” value is recorded as 0.46 L/H/kg. Also, the “Rat. Pred. Cl.” value in data set [2] (setting [5]) is given as 0.31 L/H/kg.
As for `COC(=O)N[C@H](C(=O)N[C@@H](Cc1ccc(C#Cc2ccc(N3CCN(C4COC4)CC3)nc2)cc1)[C@@H](O)CN(Cc1c(F)cc(-c2cc(F)ccn2)cc1F)NC(=O)[C@@H](NC(=O)OC)C(C)(C)C(F)(F)F)C(C)(C)C(F)(F)F` [Example 98, Methyl ((5S,8S,9S,14S)-11-(2,6-difluoro-4-(4-fluoropyridin-2-yl)benzyl)-16,16,16-trifluoro-9-hydroxy-15,15-dimethyl-8-(4-((6-(4-(oxetan-3-yl)piperazin-1-yl)pyridin-3-yl)ethynyl)benzyl)-3,6,13-trioxo-5-(1,1,1-trifluoro-2-methylpropan-2-yl)-2-oxa-4,7,11,12-tetraazahexadecan-14-yl)carbamate], the EC50 in data set [1] (setting [3]) was 4.97 nM. The “Human Pred Cl.” value in data set [2] (setting [4]) stood at 0.26 L/H/kg. For the same molecule, the “Rat. Pred. Cl.” value in data set [2] (setting [5]) is given as 0.65 L/H/kg.
Consider `COC(=O)N[C@H](C(=O)N[C@@H](Cc1ccc(C#Cc2ccc(N3CC4CCC(C3)N4C3COC3)nc2)cc1)[C@@H](O)CN(Cc1c(F)cc(-c2ccc(C(F)F)cn2)cc1F)NC(=O)[C@@H](NC(=O)OC)C(C)(C)C(F)(F)F)C(C)(C)C(F)(F)F` [Example 99, Methyl ((5S,8S,9S,14S)-11-(4-(5-(difluoromethyl)pyridin-2-yl)-2,6-difluorobenzyl)-16,16,16-trifluoro-9-hydroxy-15,15-dimethyl-8-(4-((6-(8-(oxetan-3-yl)-3,8-diazabicyclo [3.2.1]octan-3-yl)pyridin-3-yl)ethynyl)benzyl)-3,6,13-trioxo-5-(1,1,1-trifluoro-2-methylpropan-2-yl)-2-oxa-4,7,11,12-tetraazahexadecan-14-yl)carbamate], for which, in data set [1] (setting [3]), the EC50 was found to be 7.96 nM. Moreover, in data set [2] (human, microsomes), the “Human Pred Cl.” value was less than 0.11 L/H/kg. Moreover, the “Rat. Pred. Cl.” value in data set [2] (rat, microsomes) is on record as 0.26 L/H/kg.
On the same counts, the results for `COC(=O)N[C@H](C(=O)N[C@@H](Cc1ccc(C#Cc2ccc(N3CC4CCC(C3)N4C3COC3)nc2)cc1)[C@@H](O)CN(Cc1c(F)cc(-c2ccc(F)cn2)cc1F)NC(=O)[C@@H](NC(=O)OC)C(C)(C)C(F)(F)F)C(C)(C)C(F)(F)F` [Example 102, Methyl ((5S,8S,9S,14S)-11-(2,6-difluoro-4-(5-fluoropyridin-2-yl)benzyl)-16,16,16-trifluoro-9-hydroxy-15,15-dimethyl-8-(4-((6-(8-(oxetan-3-yl)-3,8-diazabicyclo [3.2.1]octan-3-yl)pyridin-3-yl)ethynyl)benzyl)-3,6,13-trioxo-5-(1,1,1-trifluoro-2-methylpropan-2-yl)-2-oxa-4,7,11,12-tetraazahexadecan-14-yl)carbamate] are 5.68 nM, 0.18 L/H/kg and less than 0.18 L/H/kg.
